Experiments:
Type in all cases: in vivo
[1] = tested on: Abutilon theophrasti (ABUTH); test: Post-emergence herbicidal action, greenhouse pot test; conditions: rated visually after about 3 weeks vs untreated controls, 100% = plants have died
Procedure, shortened: (§1)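 Greenhouse-grown weeds in sandy loam were sprayed post-emergence at the one-leaf stage, 2–3 weeks after sowing. Compounds were formulated as WP or EC in water with 0.5% additive at 600 l/ha, at rates of 20 g/ha or less. Visual rating after about 3 weeks used a scale from 0% (like untreated control) to 100% (plants dead).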

[2] = tested on: Amaranthus retroflexus (AMARE); test: as above; conditions: rated visually after about 3 weeks vs untreated controls, 100% = plants have died
Procedure, shortened: as §1

Avena fatua (AVEFA) = test: as above; conditions: 20 g/ha, rated visually after about 3 weeks vs untreated controls, 100% = plants have died
Procedure, shortened: as §1

Lolium rigidum (LOLRI) = test: as above; conditions: dosage 20 g/ha
Procedure, shortened: as §1

[3] = tested on: Pharbitis purpurea (PHBPU); test: as above
Procedure, shortened: as §1

[4] = tested on: Polygonum convolvulus (POLCO); test: as above
Procedure, shortened: as §1

Veronica persica (VERPE) = test: as above
Procedure, shortened: as §1

Viola tricolor (VIOTR) = test: as above
Procedure, shortened: as §1

[5] = tested on: Alopecurus myosuroides (ALOMY); test: Post-emergence herbicidal action, greenhouse pot test (also comparative test C); conditions: rated visually after about 3 weeks vs untreated controls, 100% = plants have died
Procedure, shortened: (§2)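 Green parts of one-leaf-stage plants are sprayed at 600 l/ha with formulated compound plus 0.5% additive, then kept under optimum greenhouse conditions for about 3 weeks. Damage is scored visually, where 100% means dead plants and 0% means no difference from controls.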

[6] = tested on: Echinochloa crus-galli (ECHCG); test: as above
Procedure, shortened: as §2

[7] = tested on: Matricaria inodora (MATIN); test: as above
Procedure, shortened: as §2

Setaria viridis (SETVI) = test: as above
Procedure, shortened: as §2

Glycine max (GLXMA) = test: Post-emergence crop plant compatibility, greenhouse pot test; conditions: 1.25 g/ha
Procedure, shortened: (§3)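 Greenhouse-grown crop plants sprayed post-emergence at the one-leaf stage with WP or EC formulations plus 0.5% additive, at 600 l/ha water. Damage rated visually after about 3 weeks versus untreated controls (0% = like control, 100% = dead); suffixes a/b/c denote different dosages.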

[8] = tested on: Triticum aestivum (TRZAS); test: as above; conditions: vs untreated controls
Procedure, shortened: as §3

Zea mays (ZEAMX) = test: as above; conditions: vs untreated controls
Procedure, shortened: as §3

Oryza sativa (ORYSA) = test: Post-emergence crop plant compatibility, greenhouse pot test (also comparative test C); conditions: for Post-emergence action against ORYSA (crop plant compatibility): vs untreated controls
Procedure, shortened: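 Rice and other crops sprayed post-emergence at one-leaf stage (2–3 weeks after sowing) with WP or EC formulations plus 0.5% additive at 600 l/ha water. Visual rating about 3 weeks later versus untreated controls (100% = dead, 0% = like control); suffixes a–c denote different doses.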

Post-emergence action against GLXMA in % (Glycine max (GLXMA)): 20%
Post-emergence action against TRZAS (crop plant compatibility) ([8]; 1.25 g/ha): 10%
Post-emergence action against TRZAS (crop plant compatibility) ([8]; 5 g/ha): 20%
Post-emergence action against TRZAS (crop plant compatibility) ([8]; 20 g/ha): 20%
Post-emergence action against ZEAMX (crop plant compatibility) (Zea mays (ZEAMX); 1.25 g/ha): 10%
Post-emergence action against ZEAMX (crop plant compatibility) (Zea mays (ZEAMX); 5 g/ha): 20%
Post-emergence action against ORYSA (crop plant compatibility) (Oryza sativa (ORYSA); 1.25 g/ha): 0%
Post-emergence action against ORYSA (crop plant compatibility) (Oryza sativa (ORYSA); 5 g/ha): 10%
Post-emergence action against ORYSA in % (Oryza sativa (ORYSA); 20 g/ha, crop plant compatibility): 20%
Compound: COCCOCCOC(=O)COc1ccccc1Oc1cc(-n2c(=O)cc(C(F)(F)F)n(C)c2=O)c(F)cc1[N+](=O)[O-] [I.6-23]
Post-emergence action at 1.25 g/ha against ABUTH in % ([1]; 1.25 g/ha): 100%
Post-emergence action at 5 g/ha against ABUTH in % ([1]; 5 g/ha): 100%
Post-emergence action at 20 g/ha against ABUTH in % ([1]; 20 g/ha): 100%
Post-emergence action at 1.25 g/ha against AMARE in % ([2]; 1.25 g/ha): 100%
Post-emergence action at 5 g/ha against AMARE in % ([2]; 5 g/ha): 100%
Post-emergence action at 20 g/ha against AMARE in % ([2]; 20 g/ha): 100%
Post-emergence action at 20 g/ha against AVEFA in % (Avena fatua (AVEFA)): 90%
Post-emergence action against LOLRI in % (Lolium rigidum (LOLRI)): 90%
Post-emergence action against PHBPU in % ([3]; dosage 1.25 g/ha): 80%
Post-emergence action against PHBPU in % ([3]; dosage 5 g/ha): 90%
Post-emergence action against PHBPU in % ([3]; dosage 20 g/ha): 100%
Post-emergence action against POLCO in % ([4]; dosage 1.25 g/ha): 90%
Post-emergence action against POLCO in % ([4]; dosage 5 g/ha): 100%
Post-emergence action against POLCO in % ([4]; dosage 20 g/ha): 100%
Post-emergence action against VERPE (Veronica persica (VERPE); 1.25 g/ha): 100%
Post-emergence action against VERPE (Veronica persica (VERPE); 5 g/ha): 100%
Post-emergence action against VERPE (Veronica persica (VERPE); 20 g/ha): 100%
Post-emergence action against VIOTR (Viola tricolor (VIOTR); 1.25 g/ha): 100%
Post-emergence action against VIOTR (Viola tricolor (VIOTR); 5 g/ha): 100%
Post-emergence action against VIOTR (Viola tricolor (VIOTR); 20 g/ha): 100%
Post-emergence action at 5 g/ha against ALOMY in % ([5]; 5 g/ha): 80%
Post-emergence action at 20 g/ha against ALOMY in % ([5]; 20 g/ha): 90%
Post-emergence action at 1.25 g/ha against ECHCG in % ([6]; 1.25 g/ha, rated visually after about 3 weeks vs untreated controls, 100% = plants have died): 80%
Post-emergence action against ECHCG in % ([6]; dosage 5 g/ha): 90%
Post-emergence action against ECHCG in % ([6]; dosage 20 g/ha): 100%
Post-emergence action against MATIN in % ([7]; dosage 1.25 g/ha): 80%
Post-emergence action against MATIN in % ([7]; dosage 5 g/ha): 100%
Post-emergence action against MATIN in % ([7]; dosage 20 g/ha): 100%
Post-emergence action against SETVI (Setaria viridis (SETVI); 20 g/ha): 100%
Post-emergence action against SETVI in % (Setaria viridis (SETVI); dosage 1.25 g/ha): 100%
Post-emergence action against SETVI in % (Setaria viridis (SETVI); dosage 5 g/ha): 100%
